Laboratory results taken from US9586896B2, “Nitroxyl donors with improved therapeutic index” (Cardioxyl Pharmaceuticals, Inc., priority 2013, dated 2017).

Assay: Exploratory studies on the cause of the side effects of CXL-1020
Conditions: in vivo
Experimental: Exploratory studies were continued to determine the cause of the undesirable side effects of CXL-1020 at the higher, but still clinically desirable, doses. […] Studies were conducted with alternative nitroxyl donors that were structurally unrelated to CXL-1020 but had similar half-lives for nitroxyl donation (half-lives of about 2 minutes). For these donors, nitroxyl was at its highest intravascular concentration at the catheter tip and immediately downstream in the vein into which the catheter had been inserted. In all instances, local vascular side effects at the catheter tip were observed.

SMILES: CS(=O)(=O)c1ccccc1S(=O)O [byproduct of CXL-1020]
- side effect studies with the byproduct: negative
